Experimental data as given in patent US8642614B2, “Toll-like receptor modulators and uses thereof” (The Regents of the University of Colorado, a body corporate, priority 2009, dated 2014).
Like-named read-outs stand apart in the source and are kept apart here.

Assays:
TLR4 [1] = molecular target: TLR4 (Homo sapiens, UniProt O00206+Q9Y6Y9)
TLR4 [2] = molecular target: T1, TLR4 (Homo sapiens, UniProt O00206); test: Whole blood model of inflammation (cytokine secretion after LPS or E. coli); assay type: cell-based
Description: Test of TLR4 inhibition by compounds of the invention with respect to impact on secretion of cytokines IL-6, IL-8, (TNFα) and IL1β in the whole blood model of inflammation was performed using the procedure described by Mollnes et al. (Blood, 2002, 100, 1869-1877) using (i) LPS to compare the two variants of 2126-HCl in a restricted set-up, (ii) gram negative bacteria to initiate innate immune response that involves both TLR4/MD2, TLR2, as well as the complement system (compare to anti-CD14 and compstatin).

TLR4 [3] = molecular target: T1, TLR4; test: Secreted alkaline phosphatase (SEAP) reporter gene assay in HEK293 cells transfected with TLR4; assay type: cell-based; details: HEK293, SEAP reporter downstream of NF-κB promoter; dose-dependent manner
Description: FIGS. 3A and 3B. A small dose of chemotactic peptide C5a (25 ng/mL) that stimulates PI3K15 was able to rescue the Akt signaling inhibited by either compound. Global translocation of Akt1-GFP to the plasma membrane was observed, confirming that these cells retained normal Akt signaling transduction functions. Akt1 is directly downstream of TLR4 in the signal transduction pathway. […] Murine macrophages express a variety of TLRs and immune receptors. […] The activity of Compound A-1 was further confirmed in an established TLR4 assay in HEK293 cells, where a secreted alkaline phosphatase reporter gene is located downstream from the NF-κB promoter. Compound A-1 was effective at blocking the downstream proinflammatory effectors of TLR4 in a dose-dependent manner.
Materials for the SEAP assay were obtained from Applied Biosystems (CA, USA) and utilized according to the manufacturer's specifications. Human embryonic kidney 293 (HEK293) cells stably transfected with TLR4 and a secreted alkaline phosphatase (SEAP) reporter gene was obtained from Invivogen (CA, USA). […]
A sample of CSF buffer (15 μL) from each well was collected and transferred to an opaque white 96 well plate (Microfluor 2, Thermo Scientific MA, USA). […] After 20 min, the luminescence of each well was measured using a plate reader (Beckman Coulter, DTX 880, CA, USA) with multimode analysis software.

[4] = test system: HEK293 cells stably transfected with TLR4; test: Cell viability assay (Trypan Blue); assay type: cell-based, human; details: tested concentrations, FIG. 4
Description: Human embryonic kidney 293 (HEK293) cells were stably transfected with TLR4 and necessary assembly and signalling proteins (MD2, CD-14, LPSBP, etc.). Cells were cultured in DMEM supplemented with 10% FBS, penicillin (100 U/ml), streptomycin ([…]), L-glutamine (2 mM), 0.1 mg/ml normocin (InvivoGen, CA, USA) and 1×HEK Blue selection reagent (InvivoGen, CA, USA). Cells were implanted in 6 cm plates and grown to 65-75% confluency by incubating at 37° C., prior to drug treatment. On the day of treatment, media was removed from the 6 cm plate and replaced with cerebrospinal fluid (CSF) buffer supplemented with drug treatment. After 24 h incubation at 37° C., CSF was removed and cells were agitated with 0.05% Trypsin plus 0.2 g/l EDTA (Invitrogen, CA, USA) and re-suspended in fresh DMEM supplemented media. After re-suspension, a […] was taken from each 6 cm plate, mixed gently with 100 μl 0.4% Trypan Blue (Sigma, Mo., USA) and allowed to sit for 5 min. The ratio of blue stained cells to total cells was then quantified using a Bright Line 0.1 mm depth hemocytometer (VWR, PA, USA) under a Nikon TMS light microscope (Nikon Instrumentals, CA USA).

[5] = test system: LPS-induced TLR4 activation; test: Real time microscopy of Akt1-GFP translocation (TLR4 signaling) in RAW264.7 macrophages; assay type: cell-based, mouse; details: RAW 264.7 Akt1-GFP, LPS 2 ng/ml
Description: Lipopolysaccharide (LPS)-induced TLR4 activation initiates the phosphoinositide 3-kinase (PI3K) cascade, triggering translocation of Akt1 to the plasma membrane in murine macrophages. RAW 264.7 cells transfected with an Akt1-GFP reporter13 were treated with drug then activated with LPS. In the absence of LPS, Akt1-GFP was uniformly diffused throughout the cytosol as observed by fluorescence microscopy. Addition of LPS (2 ng/ml) caused a rapid translocation of Akt1-GFP to the plasma membrane, lowering the Akt1-GFP concentration in the cytosol. Doses of Compound A-1 as low as 2 μM and Compound A-2 as low as 200 nM substantially abolished LPS-induced activation of the signaling pathway.
FIGS. 3A and 3B. A small dose of chemotactic peptide C5a (25 ng/mL) that stimulates PI3K15 was able to rescue the Akt signaling inhibited by either compound. […]
TLR4 signaling leads to the simultaneous activation of three parallel intra-cellular signaling pathways. […] Baseline fluorescence was captured for 5 frames, following which vehicle or antagonist was added in 200 μl. Imaging continued for a further 20 frames at which time LPS or test agonist (200 μl) were applied and monitored for a further 20 frames. […] GFP-Akt1 cytosolic clearance was quantified using ImageJ and expressed as a normalized change in cytoplasmic fluorescence over time.

[6] = Hargreaves test (radiant heat withdrawal), intrathecal injection with or without morphine; details: rat
[7] = rat, in vivo
[8] = clinically employed (−)-opioids

T1 sequence (O00206 24-839): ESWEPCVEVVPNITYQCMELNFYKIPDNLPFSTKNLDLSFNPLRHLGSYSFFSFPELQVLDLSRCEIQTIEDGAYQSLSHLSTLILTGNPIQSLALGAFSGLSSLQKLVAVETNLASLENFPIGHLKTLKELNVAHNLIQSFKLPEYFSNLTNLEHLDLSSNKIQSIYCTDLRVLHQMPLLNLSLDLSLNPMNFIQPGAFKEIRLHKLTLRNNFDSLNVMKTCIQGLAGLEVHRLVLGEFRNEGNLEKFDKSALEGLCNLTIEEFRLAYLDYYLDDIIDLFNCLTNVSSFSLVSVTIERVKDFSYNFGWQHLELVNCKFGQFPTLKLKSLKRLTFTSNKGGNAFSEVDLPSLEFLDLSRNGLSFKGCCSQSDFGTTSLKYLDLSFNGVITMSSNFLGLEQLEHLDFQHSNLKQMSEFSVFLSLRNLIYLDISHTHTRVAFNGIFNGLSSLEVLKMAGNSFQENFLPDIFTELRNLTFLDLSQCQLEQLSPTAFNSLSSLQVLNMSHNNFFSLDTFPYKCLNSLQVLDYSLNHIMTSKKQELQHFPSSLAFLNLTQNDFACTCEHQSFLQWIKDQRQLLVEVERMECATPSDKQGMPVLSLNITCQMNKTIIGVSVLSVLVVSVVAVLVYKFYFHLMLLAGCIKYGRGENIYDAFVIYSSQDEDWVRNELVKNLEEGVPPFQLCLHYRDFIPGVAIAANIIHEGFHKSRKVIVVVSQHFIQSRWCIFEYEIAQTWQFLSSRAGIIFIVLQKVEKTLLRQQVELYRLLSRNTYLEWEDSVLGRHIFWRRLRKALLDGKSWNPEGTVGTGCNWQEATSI
Sequence of TLR4 (Homo sapiens, UniProt O00206+Q9Y6Y9) (O00206 24-839, species assumed): as the sequence (O00206 24-839) above
Sequence of TLR4 (Homo sapiens, UniProt O00206+Q9Y6Y9) (Q9Y6Y9 19-160, species assumed): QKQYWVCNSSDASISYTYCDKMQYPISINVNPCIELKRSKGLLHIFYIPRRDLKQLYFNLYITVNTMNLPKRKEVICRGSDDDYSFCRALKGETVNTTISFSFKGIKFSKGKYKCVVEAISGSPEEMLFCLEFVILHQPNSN

## COc1ccc2c3c1O[C@H]1C(=O)CC[C@@]4(O)[C@@H](C2)N(C)CC[C@]314 [oxycodone]
TLR4 [1]; [8]
  TLR4 agonism: TLR4 agonists

## CN1CC[C@]23c4c5ccc(O)c4O[C@H]2[C@@H](O)C=C[C@H]3[C@H]1C5 [morphine]
TLR4 [1]
  TLR4 agonism: TLR4 agonists

## CC[C@H](C)[C@H](N)C(=O)N[C@H]1CSSC[C@@H](C(=O)N[C@H](C(N)=O)[C@@H](C)O)NC(=O)[C@H](CCCN=C(N)N)NC(=O)[C@H](Cc2cnc[nH]2)NC(=O)[C@H](Cc2cnc[nH]2)NC(=O)CNC(=O)[C@H](Cc2c[nH]c3ccccc23)NC(=O)[C@H](CC(=O)O)NC(=O)[C@H](CCC(N)=O)NC(=O)[C@H](C(C)C)NC(=O)[C@H](C(C)C)NC1=O [compstatin]
TLR4 [2]; E. coli as activator
  effect of compstatin on the inhibition of Il-6 levels by anti-CD14 and 2126-HCl: increased the inhibitory effect
TLR4 [2]; E. coli stimulation, 2126-HCl 500 μM, compstatin 25 μM
  reduction of Il-1β plasma levels: about 50%
TLR4 [2]; E. coli, added to anti-CD14 or 2126-HCl
  cytokine release in response to E. coli on addition of compstatin: further decreased
TLR4 [2]; compstatin itself
  cytokine specificity: specific for Il8 and Il-1β
TLR4 [2]; whole blood
  effect on Il-6 secretion / plasma levels: little impact

## CCOc1ccc(OCC(O)CN(C)Cc2c(C)nn(Cc3ccccc3Cl)c2C)cc1 (stereo not drawn) [Compound A-1, 1-(((1-(2-chlorobenzyl)-3,5-dimethyl-1H-pyrazol-4-yl)methyl)(methyl)amino)-3-(4-ethoxyphenoxy)propan-2-ol]
TLR4 [3]
  blocking the downstream proinflammatory effectors of TLR4: effective
[4]
  cellular toxicity: neither Compound A-1 nor Compound A-2 showed any significant cellular toxicity
[5]
  dose that substantially abolished LPS-induced activation of the signaling pathway: ≤ 2 µM
[6]; with morphine, maximal analgesia recordable (10 s cut-off) across two hours
  potentiation of the analgesic effects of morphine: significantly potentiated
[6]; without morphine
  effect on pain responsivity in the absence of co-administered morphine: no effect
[7]
  behavioral effects of compound alone: no detectable behavioral effects

## CCC(=O)C(CC(C)N(C)C)(c1ccccc1)c1ccccc1 (stereo not drawn) [methadone]
TLR4 [1]; [8]
  TLR4 agonism: TLR4 agonists

## CCOC(=O)C1(c2ccccc2)CCN(C)CC1 [pethadine/meperidine]
TLR4 [1]; [8]
  TLR4 agonism: TLR4 agonists
